Test results taken from patent publication US20080167314A1, “Condensed Imidazole Compound And Use Thereof” (priority 2004, published 2008).

Compound | melting point [°C]
Cc1cccc(-c2nc3cccnn3c2-c2ccnc(NC(=O)c3ccccc3F)c2)c1 [Example Compound 20-5, 2-fluoro-N-{4-[2-(3-methylphenyl)imidazo[1,2-b]pyridazin-3-yl]pyridin-2-yl}benzamide] | 180 to 181
CC(=O)Nc1cc(-c2c(-c3cccc(C)c3)nc3cccnn23)ccn1 [Example Compound 20-7, N-{4-[2-(3-methylphenyl)imidazo[1,2-b]pyridazin-3-yl]pyridin-2-yl}acetamide] | 227 to 228
CCC(=O)Nc1cc(-c2c(-c3cccc(C)c3)nc3cccnn23)ccn1 [Example Compound 20-9, N-{4-[2-(3-methylphenyl)imidazo[1,2-b]pyridazin-3-yl]pyridin-2-yl}propanamide] | 138 to 139
COc1ccc(CC(=O)Nc2cc(-c3c(-c4cccc(C)c4)nc4cccnn34)ccn2)cc1 [Example Compound 20-12, 2-(4-methoxyphenyl)-N-{4-[2-(3-methylphenyl)imidazo[1,2-b]pyridazin-3-yl]pyridin-2-yl}acetamide] | 213 to 214
COc1ccc(C(=O)Nc2cc(-c3c(-c4cccc(Cl)c4)nc4cccnn34)ccn2)cc1 [Example Compound 21-3, N-{4-[2-(3-chlorophenyl)imidazo[1,2-b]pyridazin-3-yl]pyridin-2-yl}-4-methoxybenzamide] | 223 to 224
CCC(=O)Nc1cc(-c2c(-c3cccc(Cl)c3)nc3cccnn23)ccn1 [Example Compound 21-7, N-{4-[2-(3-chlorophenyl)imidazo[1,2-b]pyridazin-3-yl]pyridin-2-yl}propanamide] | 192 to 193
Cc1cc(-c2nc3cccnn3c2-c2ccnc(NC(=O)c3ccc(Cl)cc3)c2)ccc1F [Example Compound 21-17, 4-chloro-N-{4-[2-(4-fluoro-3-methylphenyl)imidazo[1,2-b]pyridazin-3-yl]pyridin-2-yl}benzamide] | 207 to 209
CCC(=O)Nc1cc(-c2c(-c3ccc(F)c(C)c3)nc3cccnn23)ccn1 [Example Compound 21-18, N-{4-[2-(4-fluoro-3-methylphenyl)imidazo[1,2-b]pyridazin-3-yl]pyridin-2-yl}propanamide] | 166 to 167
CCC(=O)Nc1cc(-c2c(-c3ccc(Cl)cc3)nc3cccnn23)ccn1 [Example Compound 21-28, N-{4-[2-(4-chlorophenyl)imidazo[1,2-b]pyridazin-3-yl]pyridin-2-yl}propanamide] | 204 to 205
Cc1cccc(-c2nc3cccnn3c2-c2ccnc(N(C(=O)C3CC3)C(=O)C3CC3)c2)c1 [Example Compound 23-1, N-(cyclopropylcarbonyl)-N-{4-[2-(3-methylphenyl)imidazo[1,2-b]pyridazin-3-yl]pyridin-2-yl}cyclopropanecarboxamide] | 173 to 175
Cc1cccc(NC(=O)Nc2cc(-c3c(-c4cccc(C)c4)nc4cccnn34)ccn2)c1 [Example Compound 27-2, N-(3-methylphenyl)-N′-{4-[2-(3-methylphenyl)imidazo[1,2-b]pyridazin-3-yl]pyridin-2-yl}urea] | 202 to 203
CCNC(=O)Nc1cc(-c2c(-c3cccc(C)c3)nc3cccnn23)ccn1 [Example Compound 27-4, N-ethyl-N′-(4-[2-(3-methylphenyl)imidazo[1,2-b]pyridazin-3-yl]pyridin-2-yl)urea] | 212 to 213
Cc1cccc(-c2nc3cccnn3c2-c2ccnc(NC(=O)NC(C)C)c2)c1 [Example Compound 27-6, N-isopropyl-N′-{4-[2-(3-methylphenyl)imidazo[1,2-b]pyridazin-3-yl]pyridin-2-yl}urea] | 193 to 195
CCCNC(=O)Nc1cc(-c2c(-c3ccc(F)c(C)c3)nc3cccnn23)ccn1 [Example Compound 28-4, N-{4-[2-(4-fluoro-3-methylphenyl)imidazo[1,2-b]pyridazin-3-yl]pyridin-2-yl}-N′-propylurea] | 231 to 232
Cc1cc(-c2nc3cccnn3c2-c2ccnc(NC(=O)NC3CCCCC3)c2)ccc1F [Example Compound 28-6, N-cyclohexyl-N′-{4-[2-(4-fluoro-3-methylphenyl)imidazo[1,2-b]pyridazin-3-yl]pyridin-2-yl}urea] | 229 to 230
CCNC(=O)Nc1cc(-c2c(-c3cccc(Cl)c3)nc3cccnn23)ccn1 [Example Compound 28-7, N-{4-[2-(3-chlorophenyl)imidazo[1,2-b]pyridazin-3-yl]pyridin-2-yl}-N′-ethylurea] | 230 to 231

Compound | melting point [°C]
CCNC(=O)Nc1cc(-c2c(-c3ccc(Cl)cc3)nc3cccnn23)ccn1 [Example Compound 28-8, N-{4-[2-(4-chlorophenyl)imidazo[1,2-b]pyridazin-3-yl]pyridin-2-yl}-N′-ethylurea] | 223 to 224
CCCNC(=O)Nc1cc(-c2c(-c3ccc(F)cc3)nc3cccnn23)ccn1 [Example Compound 28-9, N-{4-[2-(4-fluorophenyl)imidazo[1,2-b]pyridazin-3-yl]pyridin-2-yl}-N′-propylurea] | 219 to 220
CC(C)NC(=O)Nc1cc(-c2c(-c3ccc(F)cc3)nc3cccnn23)ccn1 [Example Compound 28-10, N-{4-[2-(4-fluorophenyl)imidazo[1,2-b]pyridazin-3-yl]pyridin-2-yl}-N′-isopropylurea] | 222 to 223
CCN(CC)C(=O)Nc1cc(-c2c(-c3cccc(C)c3)nc3cccnn23)ccn1 [Example Compound 32-1, N,N-diethyl-N′-{4-[2-(3-methylphenyl)imidazo[1,2-b]pyridazin-3-yl]pyridin-2-yl}urea] | 166 to 167
Cc1cccc(-c2nc3cccnn3c2-c2ccnc(NC(=O)N3CCc4ccccc4C3)c2)c1 [Example Compound 32-2, N-{4-[2-(3-methylphenyl)imidazo[1,2-b]pyridazin-3-yl]pyridin-2-yl}-3,4-dihydroisoquinoline-2-(1H)carboxamide] | 122 to 124
Cc1cc(-c2nc3c(C)cc(Cl)nn3c2-c2ccnc(N)c2)ccc1F [Example Compound 36-1, 4-[6-chloro-2-(4-fluoro-3-methylphenyl)-8-methylimidazo[1,2-b]pyridazin-3-yl]-2-pyridylamine] | 218 to 219
Cc1cc(-c2nc3cc(C(C)(C)C)c(Cl)nn3c2-c2ccnc(N)c2)ccc1F [Example Compound 36-2, 4-[7-tert-butyl-6-chloro-2-(4-fluoro-3-methylphenyl)imidazo[1,2-b]pyridazin-3-yl]-2-pyridylamine] | 232 to 233
COc1cc(Cl)nn2c(-c3ccnc(N)c3)c(-c3ccc(F)c(C)c3)nc12 [Example Compound 36-3, 4-[6-chloro-2-(4-fluoro-3-methylphenyl)-8-methoxyimidazo[1,2-b]pyridazin-3-yl]-2-pyridylamine] | 200 to 201
CSc1cc(Cl)nn2c(-c3ccnc(N)c3)c(-c3ccc(F)c(C)c3)nc12 [Example Compound 36-4, 4-[6-chloro-2-(4-fluoro-3-methylphenyl)-8-(methylthio)imidazo[1,2-b]pyridazin-3-yl]-2-pyridylamine] | 237 to 238
Cc1cccc(-c2nc3cccnn3c2-c2ccnc(N)n2)c1 [Example Compound 37-1, 4-[2-(3-methylphenyl)imidazo[1,2-b]pyridazin-3-yl]-2-pyrimidinamine] | 250 to 251
Cc1cc(-c2nc3c(C)ccnn3c2-c2ccnc(N)c2)ccc1F [Example Compound 37-2, 4-[2-(4-fluoro-3-methylphenyl)-8-methylimidazo[1,2-b]pyridazin-3-yl]-2-pyridylamine] | 212 to 213
Cc1cc(-c2nc3cc(C(C)(C)C)cnn3c2-c2ccnc(N)c2)ccc1F [Example Compound 37-3, 4-[7-tert-butyl-2-(4-fluoro-3-methylphenyl)imidazo[1,2-b]pyridazin-3-yl]-2-pyridylamine] | 212 to 213
COc1ccnn2c(-c3ccnc(N)c3)c(-c3ccc(F)c(C)c3)nc12 [Example Compound 37-4, 4-[2-(4-fluoro-3-methylphenyl)-8-methoxyimidazo[1,2-b]pyridazin-3-yl]-2-pyridylamine] | 219 to 220
Cc1cccc(-c2nc3cccnn3c2-c2ccnc(NCC(C)(C)C)c2)c1 [Example compound 6-18, N-(2,2-dimethylpropyl)-4-[2-(3-methylphenyl)imidazo[1,2-b]pyridazin-3-yl]pyridin-2-amine] | 157 to 158
CCC(CC)Nc1cc(-c2c(-c3cccc(C)c3)nc3cccnn23)ccn1 [Example compound 6-20, N-(1-ethylpropyl)-4-[2-(3-methylphenyl)imidazo[1,2-b]pyridazin-3-yl]pyridin-2-amine] | 155 to 156
COc1ccc(C(=O)Nc2cc(-c3c(-c4cccc(C)c4)nc4cccnn34)ccn2)cc1 [Example compound 20-2, 4-methoxy-N-{4-[2-(3-methylphenyl)imidazo[1,2-b]pyridazin-3-yl]pyridin-2-yl}benzamide] | 177 to 178
